Data from PubChem BioAssay (NCI).
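GI50 is the concentration that inhibits growth by half. TGI: total growth inhibition.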

How the values were obtained:
Experiment in all cases: NCI anticancer screen, dose series, 384-well format; in the data active = GI50 below about 0.43 µM; inactive = the rest
MALME-3M melanoma = tested on: MALME-3M melanoma
COLO 205 colon = tested on: COLO 205 colon
UACC-62 melanoma = tested on: UACC-62 melanoma
SF-268 CNS = tested on: SF-268 CNS
UO-31 renal = tested on: UO-31 renal
EKVX NSCLC = tested on: EKVX NSCLC
SR leukemia = tested on: SR leukemia
SF-539 CNS = tested on: SF-539 CNS
NCI-H460 NSCLC = tested on: NCI-H460 NSCLC
A549 NSCLC = tested on: A549 NSCLC
786-0 renal = tested on: 786-0 renal
U251 glioblastoma = tested on: U251 glioblastoma
MDA-MB-435 melanoma = tested on: MDA-MB-435 melanoma
NCI-H23 lung = tested on: NCI-H23 lung
OVCAR-3 ovarian = tested on: OVCAR-3 ovarian
SF-295 CNS = tested on: SF-295 CNS
OVCAR-8 ovarian = tested on: OVCAR-8 ovarian
SNB-19 CNS = tested on: SNB-19 CNS
HL-60(TB) leukemia = tested on: HL-60(TB) leukemia
HCT-116 colon = tested on: HCT-116 colon
BT-549 breast = tested on: BT-549 breast
MDA-MB-468 breast = tested on: MDA-MB-468 breast
HOP-92 NSCLC = tested on: HOP-92 NSCLC
SK-MEL-5 melanoma = tested on: SK-MEL-5 melanoma
SW-620 colon = tested on: SW-620 colon
NCI-H522 lung = tested on: NCI-H522 lung
UACC-257 melanoma = tested on: UACC-257 melanoma
HS 578T breast = tested on: HS 578T breast
M14 melanoma = tested on: M14 melanoma
HCT-15 colon = tested on: HCT-15 colon
PC-3 prostate = tested on: PC-3 prostate
HT29 colon = tested on: HT29 colon
A498 renal = tested on: A498 renal
SK-MEL-2 melanoma = tested on: SK-MEL-2 melanoma
SNB-75 CNS = tested on: SNB-75 CNS
MOLT-4 leukemia = tested on: MOLT-4 leukemia
SK-OV-3 ovarian = tested on: SK-OV-3 ovarian
HOP-62 NSCLC = tested on: HOP-62 NSCLC
MDA-MB-231 breast = tested on: MDA-MB-231 breast
RXF 393 renal = tested on: RXF 393 renal
SN12C renal = tested on: SN12C renal
OVCAR-5 ovarian = tested on: OVCAR-5 ovarian
T-47D breast = tested on: T-47D breast
CAKI-1 renal = tested on: CAKI-1 renal
NCI-H322M lung = tested on: NCI-H322M lung
OVCAR-4 ovarian = tested on: OVCAR-4 ovarian
K-562 leukemia = tested on: K-562 leukemia
IGROV1 ovarian = tested on: IGROV1 ovarian
DU-145 prostate = tested on: DU-145 prostate
TK-10 renal = tested on: TK-10 renal
MCF7 breast = tested on: MCF7 breast
KM12 colon = tested on: KM12 colon
ACHN renal = tested on: ACHN renal
SK-MEL-28 melanoma = tested on: SK-MEL-28 melanoma
NCI-H226 lung = tested on: NCI-H226 lung

Cn1cc(Nc2nccc(-c3ccc4c(c3)CN(C3COC3)CC[C@H]4NC(=O)c3cn(C(C)(C)C)nn3)n2)cn1
54.1 µM: TGI (RXF 393 renal)
24.6 µM: TGI (K-562 leukemia)
74 µM: TGI (NCI-H522 lung)
54.4 µM: TGI (IGROV1 ovarian)
27.1 µM: TGI (SR leukemia)
inactive: GI50 (MALME-3M melanoma) 45.5 µM | GI50 (COLO 205 colon) 37.7 µM | GI50 (UACC-62 melanoma) 27.3 µM | GI50 (SF-268 CNS) > 100 µM | GI50 (UO-31 renal) 48 µM | GI50 (EKVX NSCLC) 28 µM | GI50 (SR leukemia) 12.9 µM | GI50 (SF-539 CNS) 49.2 µM | GI50 (NCI-H460 NSCLC) 44.2 µM | GI50 (A549 NSCLC) 60.9 µM | GI50 ([…]-0 renal) > 100 µM | GI50 (U251 glioblastoma) > 100 µM | GI50 (MDA-MB-435 melanoma) 43.2 µM | GI50 (NCI-H23 lung) 30.2 µM | GI50 (OVCAR-3 ovarian) 60.9 µM | GI50 (SF-295 CNS) > 100 µM | GI50 (OVCAR-8 ovarian) > 100 µM | GI50 (SNB-19 CNS) > 100 µM | GI50 (HL-60(TB) leukemia) 35.1 µM | GI50 (HCT-116 colon) 44.5 µM | GI50 (BT-549 breast) 51.6 µM | GI50 (MDA-MB-468 breast) 23.7 µM | GI50 (HOP-92 NSCLC) 52.7 µM | GI50 (SK-MEL-5 melanoma) 27.3 µM | GI50 (SW-620 colon) 48.5 µM | GI50 (NCI-H522 lung) 22.1 µM | GI50 (UACC-257 melanoma) 43.4 µM | GI50 (HS 578T breast) 84.7 µM | GI50 (M14 melanoma) 36.5 µM | GI50 (HCT-15 colon) > 100 µM | GI50 (PC-3 prostate) > 100 µM | GI50 (HT29 colon) 32.1 µM | GI50 (A498 renal) > 100 µM | GI50 (SK-MEL-2 melanoma) 66.3 µM | GI50 (SNB-75 CNS) 45.8 µM | GI50 (MOLT-4 leukemia) 15.3 µM | GI50 (SK-OV-3 ovarian) 29.5 µM | GI50 (HOP-62 NSCLC) > 100 µM | GI50 (MDA-MB-231 breast) 78.1 µM | GI50 (RXF 393 renal) 11.4 µM | GI50 (SN12C renal) 46.7 µM | GI50 (OVCAR-5 ovarian) 61.5 µM | GI50 (T-47D breast) 30.9 µM | GI50 (CAKI-1 renal) 44.7 µM | GI50 (NCI-H322M lung) 68 µM | GI50 (OVCAR-4 ovarian) 54.4 µM | GI50 (K-562 leukemia) 11.2 µM | GI50 (IGROV1 ovarian) 18.6 µM | GI50 (DU-145 prostate) > 100 µM | GI50 (TK-10 renal) 70.8 µM | GI50 (MCF7 breast) 20.8 µM | GI50 (KM12 colon) 56 µM | GI50 (ACHN renal) 41.9 µM | GI50 (SK-MEL-28 melanoma) 37.1 µM | GI50 (NCI-H226 lung) 33 µM
29.4 µM: TGI (MOLT-4 leukemia)
> 100 µM: TGI (MALME-3M melanoma) | TGI (COLO 205 colon) | TGI (UACC-62 melanoma) | TGI (SF-268 CNS) | TGI (UO-31 renal) | TGI (EKVX NSCLC) | TGI (SF-539 CNS) | TGI (NCI-H460 NSCLC) | TGI (A549 NSCLC) | TGI (786-0 renal) | TGI (U251 glioblastoma) | TGI (MDA-MB-435 melanoma) | TGI (NCI-H23 lung) | TGI (OVCAR-3 ovarian) | TGI (SF-295 CNS) | TGI (OVCAR-8 ovarian) | TGI (SNB-19 CNS) | TGI (HL-60(TB) leukemia) | TGI (HCT-116 colon) | TGI (BT-549 breast) | TGI (MDA-MB-468 breast) | TGI (HOP-92 NSCLC) | TGI (SK-MEL-5 melanoma) | TGI (SW-620 colon) | TGI (UACC-257 melanoma) | TGI (HS 578T breast) | TGI (M14 melanoma) | TGI (HCT-15 colon) | TGI (PC-3 prostate) | TGI (HT29 colon) | TGI (A498 renal) | TGI (SK-MEL-2 melanoma) | TGI (SNB-75 CNS) | TGI (SK-OV-3 ovarian) | TGI (HOP-62 NSCLC) | TGI (MDA-MB-231 breast) | TGI (SN12C renal) | TGI (OVCAR-5 ovarian) | TGI (T-47D breast) | TGI (CAKI-1 renal) | TGI (NCI-H322M lung) | TGI (OVCAR-4 ovarian) | TGI (DU-145 prostate) | TGI (TK-10 renal) | TGI (MCF7 breast) | TGI (KM12 colon) | TGI (ACHN renal) | TGI (SK-MEL-28 melanoma) | TGI (NCI-H226 lung)
